In ChEMBL document CHEMBL3045439, “Isoforms of the heteropteran Nezara viridula ecdysone receptor: protein characterisation, RH5992 insecticide binding and homology modelling” (Pest Manag Sci, 2011):

How the values were obtained:
Assay type in all cases: protein-complex assay
Ecdysone receptor [1] = biological target: T1, Ecdysone receptor (Spodoptera frugiperda, UniProt Q8MWR1+Q8MWR2); assay: Binding affinity to Spodoptera frugiperda (fall armyworm) EcR
T1 sequence (Q8MWR2 whole entry): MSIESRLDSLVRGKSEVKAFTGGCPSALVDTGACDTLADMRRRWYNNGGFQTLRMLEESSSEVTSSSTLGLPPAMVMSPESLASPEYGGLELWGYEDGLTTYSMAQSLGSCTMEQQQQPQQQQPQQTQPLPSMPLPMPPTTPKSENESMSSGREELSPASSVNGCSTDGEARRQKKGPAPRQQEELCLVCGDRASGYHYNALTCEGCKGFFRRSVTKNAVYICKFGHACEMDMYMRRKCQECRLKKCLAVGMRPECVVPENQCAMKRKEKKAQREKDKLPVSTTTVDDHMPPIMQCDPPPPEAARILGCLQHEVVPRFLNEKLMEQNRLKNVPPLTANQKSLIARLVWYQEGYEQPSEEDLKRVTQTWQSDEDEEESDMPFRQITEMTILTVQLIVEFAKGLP
T1 sequence (Q8MWR1 whole entry): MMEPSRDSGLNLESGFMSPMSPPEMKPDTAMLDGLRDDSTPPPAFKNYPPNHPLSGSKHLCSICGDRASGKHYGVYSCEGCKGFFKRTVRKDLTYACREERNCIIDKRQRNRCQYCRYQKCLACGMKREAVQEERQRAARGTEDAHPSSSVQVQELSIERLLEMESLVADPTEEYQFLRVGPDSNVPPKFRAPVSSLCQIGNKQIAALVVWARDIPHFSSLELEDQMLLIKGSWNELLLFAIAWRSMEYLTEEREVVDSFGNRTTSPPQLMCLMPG

Ecdysone receptor [2] = biological target: T2, Ecdysone receptor (Nezara viridula, UniProt E5L6Y0+E5L6Y1); assay: Binding affinity to Nezara viridula EcR10
T2 sequence (E5L6Y1 whole entry): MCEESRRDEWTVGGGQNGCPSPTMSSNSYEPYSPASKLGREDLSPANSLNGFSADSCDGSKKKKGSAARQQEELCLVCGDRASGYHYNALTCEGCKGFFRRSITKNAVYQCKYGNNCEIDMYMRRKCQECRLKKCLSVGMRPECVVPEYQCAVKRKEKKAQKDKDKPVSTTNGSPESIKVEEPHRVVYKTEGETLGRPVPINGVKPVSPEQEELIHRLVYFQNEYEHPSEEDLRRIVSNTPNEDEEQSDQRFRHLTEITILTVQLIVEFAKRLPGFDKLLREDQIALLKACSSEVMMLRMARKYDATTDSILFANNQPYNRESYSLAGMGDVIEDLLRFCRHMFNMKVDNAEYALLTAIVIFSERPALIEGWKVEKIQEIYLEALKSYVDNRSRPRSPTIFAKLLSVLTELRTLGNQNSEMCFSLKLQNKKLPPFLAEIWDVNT
T2 sequence (E5L6Y0 whole entry): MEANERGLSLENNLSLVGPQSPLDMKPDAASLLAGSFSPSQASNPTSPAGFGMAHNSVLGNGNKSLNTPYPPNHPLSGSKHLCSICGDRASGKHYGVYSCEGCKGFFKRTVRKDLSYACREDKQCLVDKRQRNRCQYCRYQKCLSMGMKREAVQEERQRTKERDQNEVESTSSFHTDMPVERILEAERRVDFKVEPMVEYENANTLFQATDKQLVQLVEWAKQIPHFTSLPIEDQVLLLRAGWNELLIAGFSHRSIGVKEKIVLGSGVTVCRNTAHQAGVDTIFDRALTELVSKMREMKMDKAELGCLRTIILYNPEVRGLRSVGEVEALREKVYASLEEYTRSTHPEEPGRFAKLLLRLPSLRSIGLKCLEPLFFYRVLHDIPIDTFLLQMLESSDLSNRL

Ecdysone receptor [3] = biological target: T2, Ecdysone receptor; assay: Binding affinity to Nezara viridula EcR11
Ecdysone receptor [4] = biological target: Ecdysone receptor (Bemisia tabaci, UniProt A3EZJ4+A3EZJ5); assay: Binding affinity to Bemisia tabaci (sweet potato whitefly) ecdysone receptor (EcR)
Sequence of Ecdysone receptor (Bemisia tabaci, UniProt A3EZJ4+A3EZJ5) (A3EZJ4 1-297): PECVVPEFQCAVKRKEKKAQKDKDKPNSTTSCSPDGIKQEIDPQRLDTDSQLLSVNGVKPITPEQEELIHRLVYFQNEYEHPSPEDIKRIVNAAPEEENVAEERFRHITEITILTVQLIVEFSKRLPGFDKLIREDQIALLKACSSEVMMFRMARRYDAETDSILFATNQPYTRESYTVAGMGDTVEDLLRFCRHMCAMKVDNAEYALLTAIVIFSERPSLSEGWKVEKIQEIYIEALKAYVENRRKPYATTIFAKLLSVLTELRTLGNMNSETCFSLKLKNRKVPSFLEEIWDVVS
Sequence of Ecdysone receptor (Bemisia tabaci, UniProt A3EZJ4+A3EZJ5) (A3EZJ5 1-251): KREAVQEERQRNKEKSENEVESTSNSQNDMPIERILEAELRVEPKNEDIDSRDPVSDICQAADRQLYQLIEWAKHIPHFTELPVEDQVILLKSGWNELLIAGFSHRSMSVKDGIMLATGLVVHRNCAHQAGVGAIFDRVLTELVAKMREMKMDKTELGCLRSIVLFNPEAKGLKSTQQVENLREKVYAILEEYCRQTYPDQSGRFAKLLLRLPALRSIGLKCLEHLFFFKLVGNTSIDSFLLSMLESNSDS

Ecdysone receptor [5] = biological target: T3, Ecdysone receptor (Anthonomus grandis, UniProt B8RG26+Q4W6C8); assay: Binding affinity to Anthonomus grandis ecdysone receptor (EcR)
T3 sequence (B8RG26 whole entry): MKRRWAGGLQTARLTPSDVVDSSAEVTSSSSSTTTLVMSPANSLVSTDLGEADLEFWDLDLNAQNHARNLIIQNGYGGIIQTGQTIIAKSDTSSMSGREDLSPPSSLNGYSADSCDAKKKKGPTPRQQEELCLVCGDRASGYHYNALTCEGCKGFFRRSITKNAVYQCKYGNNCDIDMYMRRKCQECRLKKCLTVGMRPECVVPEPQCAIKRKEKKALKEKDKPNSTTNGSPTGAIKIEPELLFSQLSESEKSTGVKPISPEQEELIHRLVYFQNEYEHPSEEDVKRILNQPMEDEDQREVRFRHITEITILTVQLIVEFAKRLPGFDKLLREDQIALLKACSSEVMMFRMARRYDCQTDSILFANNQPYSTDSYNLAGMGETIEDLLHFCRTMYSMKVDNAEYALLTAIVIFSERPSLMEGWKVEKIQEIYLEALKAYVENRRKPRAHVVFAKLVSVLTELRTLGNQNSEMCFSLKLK
T3 sequence (Q4W6C8 whole entry): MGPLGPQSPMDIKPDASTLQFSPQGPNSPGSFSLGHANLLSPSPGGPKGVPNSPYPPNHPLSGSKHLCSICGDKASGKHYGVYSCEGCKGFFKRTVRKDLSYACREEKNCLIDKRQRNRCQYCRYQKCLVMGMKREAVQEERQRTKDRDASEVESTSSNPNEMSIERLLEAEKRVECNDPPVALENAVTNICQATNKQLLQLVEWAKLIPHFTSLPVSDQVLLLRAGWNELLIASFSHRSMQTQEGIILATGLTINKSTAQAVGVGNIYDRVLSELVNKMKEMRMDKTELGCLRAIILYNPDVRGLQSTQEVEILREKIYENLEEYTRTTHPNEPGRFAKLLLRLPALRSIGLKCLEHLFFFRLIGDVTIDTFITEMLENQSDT

| SMILES | IC50 (Ecdysone receptor [1]) | Ki (Ecdysone receptor [2]) | Ki (Ecdysone receptor [3]) | Ki (Ecdysone receptor [4]) | Ki (Ecdysone receptor [5]) |
| --- | --- | --- | --- | --- | --- |
| CC(C)(O)CC[C@@H](O)[C@](C)(O)[C@H]1CC[C@@]2(O)C3=CC(=O)[C@@H]4C[C@@H](O)[C@@H](O)C[C@]4(C)[C@H]3CC[C@]12C [20-HYDROXYECDYSONE] | 0.166 µM |  |  |  |  |
| CCc1ccc(C(=O)NN(C(=O)c2cc(C)cc(C)c2)C(C)(C)C)cc1 [TEBUFENOZIDE] |  | 20 µM | 25.1 µM | > 501 µM | 12.6 µM |
